Laboratory results reported in patent US7445791B2, “Synergistic insecticidal composition containing Chloronicotynyle and Organosphosphorus compounds” (priority 2004, dated 2008).
Values after ≈ are worked out from the molar mass of the structure shown. Like-named read-outs stand apart in the source and are kept apart here.

Legend:
[1] = cited from earlier work
[2] = tested on: Brown plant hoppers and Green plant hoppers; format: in vivo; details: 5 days after treatment
Procedure: In this evaluation, Brown plant hoppers and Green plant hoppers are obtained from laboratory colonies. Paddy leaves are immersed in 1:1 v/v, acetone/water solutions of the test compound, or solution of a combination of the test compounds, for a period of about 4 seconds. Following immersion, leaves are allowed to air-dry for 2-3 hours. Plastic bioassay trays containing multiple open-faced wells (4.0×4.0×2.5 cm) are used. Cut portions of a treated leaf, a moistened cotton dental wick and a single third-instar larva are placed into each well. These wells are covered with an adhesive vented clear plastic sheet which is held under constant fluorescent light at about 30° C. for a predetermined period of time. Larval mortality/morbidity is evaluated at 5 days after treatment. All treatments are replicated 3-4 fold in a randomized complete block design with 15-30 larvae per treatment. Using conventional log-probit analysis, the LC50 of each treatment is determined.
Using the above process, a Chloronicotynyle compound may be evaluated alone and in combination with a second insecticidal compound, Imidacloprid, at dose rates of 0, 15, 18, 21, 24, 27 and 30 ppm and in combination with Acephate 0, 400, 500, 600, 700, 800 ppm in various combination of these strengths.
Synergism can be calculated by using the Colby's method i.e. the expected (or predicted) response of the combination is calculated by taking the product of the observed response for each individual component of the combination when applied alone divided by 100 and subtracting this value from the sum of observed response for each component when applied alone. Synergism of the combination is then determined by comparing the observed response of the combination to the expected (or predicted) response as calculated from the observed response of each individual component alone. If the observed response of the combination is greater than the expected (or predicted) response then the combination is said to be synergistic and falls within the definition of synergistic effect. (Colby, S. R., Weeds, 1967(15), p. 20-22).

[3] = cited from earlier work; for DT50 hydrolysis: 40° C.; for DT 50 (calculated) hydrolysis: 20° C.
crop plants = details: cited from earlier work
[4] = 20° C.; cited from earlier work
[5] = mammals, oral administration, almost entirely in the urine; cited from earlier work
mice = details: cited from earlier work
[6] = tested on: nematodes and spider mites; details: cited from earlier work

COP(=O)(NC(C)=O)SC (stereo not shown) [Acephate, O,S-dimethylacetylphosphoramidothioate]
solubility in acetone ([1]; 20° C.): 151 mg/mL (≈ 824 mM) | solubility in benzene ([1]; 20° C.): 16 mg/mL (≈ 87.4 mM) | solubility in ethanol ([1]; 20° C.): > 100 mg/mL | solubility in ethyl acetate ([1]; 20° C.): 35 mg/mL (≈ 191 mM) | solubility in hexane ([1]; 20° C.): 0.1 mg/mL (≈ 0.546 mM) | Observed Mortality % ([2]; Acephate 600 ppm alone): 52.50% | Observed Mortality % ([2]; Acephate 700 ppm alone): 60.00% | Observed Mortality % ([2]; Acephate 800 ppm alone): 70.00% | DT50 hydrolysis ([3]; pH 3): 710 h | DT50 hydrolysis ([3]; pH 9): 60 h | phytotoxicity to crop plants (in words) (crop plants): non-phytotoxic to most crop plants | solubility in water [4]: about 790 g/l

(E)-N′-[(6-chloro-3-pyridyl)methyl]-N-cyano-N-methylacetamidine [Acetamiprid]
solubility in organic solvents (in words) ([1]; acetone, methanol, ethanol, dichloromethane, chloroform, acetonitrile and tetrahydrofuron): Soluble

CCN(CC)C(=O)C(Cl)=C(C)OP(=O)(OC)OC [Phosphamidon, 2-chloro-2-diethylcarbamoyl-1-methylvinyldimethylphosphate]
dose excreted within 24 hours [5]: 85-90% | Observed Mortality % ([2]; Phosphamidon 320 ppm alone): 60.0% | Observed Mortality % ([2]; Phosphamidon 370 ppm alone): 65% | Observed Mortality % ([2]; Phosphamidon 400 ppm alone): 72.0% | DT 50 (calculated) hydrolysis ([3]; pH 5): 60 days | DT 50 (calculated) hydrolysis ([3]; pH 7): 54 days | DT 50 (calculated) hydrolysis ([3]; pH 9): 12 days | hydrolysis in alkali (in words) ([3]; alkali): rapidly hydrolysed

O=[N+]([O-])NC1=NCCN1Cc1ccc(Cl)nc1 [Imidacloprid, 1-(6-chloro-3-pyridylmethyl)-N-nitroimidazolidin-2-yldeneamine]
acute oral LD50 (mice): 150 mg/kg | solubility in dichloromethane ([1]; 20° C.): 55 mg/mL (≈ 215 mM) | solubility in hexane ([1]; 20° C.): < 0.1 mg/mL | solubility in isopropanol ([1]; 20° C.): 1.2 mg/mL (≈ 4.69 mM) | solubility in toluene ([1]; 20° C.): 0.68 mg/mL (≈ 2.66 mM) | Observed Mortality % ([2]; Imidacloprid 20 ppm alone): 47.30% | effect on nematodes and spider mites [6]: no effect
